Measured values: patent publication US20240228481A1, “NOVEL SULFONAMIDE SERIES OF QR2 INHIBITORS TO TACKLE OXIDATIVE STRESS AND COGNITIVE DECLINE” (CARMEL HAIFA UNIVERSITY ECONOMIC CORPORATION LTD., priority 2021, published 2024)
Counter-ions that a name gives are not always drawn.

Legend:
5×FAD mice [1] = assay: Delay fear conditioning in 5×FAD mice
Procedure: Mice are transported to the conditioning room, which is lit by red light only, and kept there for 2 min. They were then placed inside a Habitest Operant Cage, within a Habitest Isolation Cubicle (Coulbourn), on a modular shock floor made of 16 metal grids, connected to Precision Animal Shockers (Coulbourn) with illumination inside the cage coming from a 20 W bulb. The mice were given 2 min to explore, during which baseline freezing was measured. Then, a 20 s, 4 kHz, 80 dB tone was given, co-terminating with the start of a 2 s, 0.5 mA foot-shock, which was repeated a further two times, each having 1 min interval. Following the third, and last of these bouts, 1 min was given prior to the animals being removed from the chambers. The next day, the animals were returned to the room under the same conditions, and were placed back into the chambers, and freezing to the context was measured over the course of 5 min. The next day, the mice were once again returned to the conditioning room, except the room was lit with white light, while the chambers were darkened, the chamber floor was covered with a flat, smooth plastic cover, one of the walls was fitted with a paper sticker and the chamber was scented with diluted (10%) window cleaner (Sano). In this unfamiliar context, the protocol from the first day was repeated, except without the foot-shocks. Freezing for the cue was recorded during the tone. All measurements were taken with a Sentec stc-tb33usb-at camera, and analysis was performed with Freeze Frame software (Actimetrics).

5×FAD mice [2] = assay: Novel object recognition in 5×FAD mice; details: 5×FAD males
Procedure: Following the first exploration of the open field arena (described above), mice were returned to the same arena the next day, while the arena now contained two identical objects. Mice were allowed to explore the objects and the arena 3 times for 10 min, with an inter trial interval of 10 min. The following day one of the objects was replaced with a novel object, and the mice were returned to the arena and allowed to explore for 10 min. Mouse movement, exploration and nuzzling was automatically recorded with an Ikegami ICD-49E camera with EthoVision 14 (Noldus Information Technology). Discrimination of the novel object was assessed by calculating (time exploring novel object−time exploring familiar object)/(time exploring novel object+time exploring familiar object).

C57BL/6 mice = assay: Delay fear conditioning after microinjection to CA1; type: in vivo, mouse; details: 5 μM to CA1
Source text: Mice were anesthetized under 2% isoflurane, using an induction box (HME109, Highland Medical Equipment). They were placed in a stereotaxic device (Kopf Stereotaxic Alignment System, model 1900) under continuous 1% isoflurane anesthesia. Guide cannulas were implanted bilaterally to CA1 (from bregma: −1.9 mm AP, ±1.4 mm ML, −1.6 mm DV), cemented to the skull and fitted with 28-gauge dummy cannulas extending 0.2 mm beyond the tip of the 1.2 mm guide cannulas. The mice were allowed at least 7 days of recovery before experimentation. The QR2 inhibitor YB-808 was dissolved in DMSO and further diluted in saline to a final DMSO concentration of 0.1%. YB-537 was dissolved in saline (0.9%). A total of 1 μl of 5 μM of either compound or vehicle was infused bilaterally to CA1, via a 28-gauge infusion cannula projecting 0.4 mm (drug delivery depth bregma: −1.6 mm DV) beyond the guide cannula, connected by polyethylene tubing to a 10 μl syringe (Hamilton) over the course of 1 min. The injection cannula was kept for 60 s inside the guide cannula in order prevent osmotic seepage of the doses upward through the cannula tract. Twenty minutes following the injection, animals underwent delay fear conditioning. Following experimentation, animals were sacrificed, brains were excised and sectioned in coronal sections, and cannula implantation was validated by imaging. […]

QR2 [3] = molecular target: T1, QR2 (Homo sapiens, UniProt P16083); assay: Cellular thermal shift assay (CETSA) of QR2 in HEK293T cells; type: cell-based; parameters: endogenous in cells; host or cells: HEK293T
T1 sequence (P16083 1-231): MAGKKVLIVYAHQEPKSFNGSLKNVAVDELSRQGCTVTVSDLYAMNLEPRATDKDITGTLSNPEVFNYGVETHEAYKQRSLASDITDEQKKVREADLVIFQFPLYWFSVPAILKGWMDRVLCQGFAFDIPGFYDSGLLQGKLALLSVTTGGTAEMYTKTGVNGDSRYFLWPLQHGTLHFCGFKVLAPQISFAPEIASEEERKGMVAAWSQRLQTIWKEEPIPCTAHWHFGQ
Procedure: The CETSA assay was performed as described (Miettinen and Björklund, 2014) with some modifications. Briefly, HEK293T cells were trypsinized (Biological Industries), washed in PBS (Sigma-Aldrich), and then suspended in PBS containing protease inhibitor cocktail (Roche). The suspended cells were then divided into two Eppendorf tubes and were treated with either: a compound or DMSO (Sigma-Aldrich) for 1 h at 37° C. under shaking. Following treatment, each sample was divided into PCR tubes (100 μL/tube) and subjected to a temperature gradient (ranging from 63 to 80° C.) for 3 minutes. Cell lysates were obtained by 3-cycles of freeze-thaw using liquid nitrogen and a thermal block set to 25° C. Samples were then centrifuged at 15,000 rpm at 4° C. for 20 min and were subsequently analyzed by western blot targeting QR2 (1:100, Santa Cruz; sc-271665). The isothermal dose response fingerprint (ITDRF) experiments were done using a constant temperature of 73° C. Band intensities were normalized to the highest concentration and superoxide dismutase 1 (SOD1) levels (1:200, Santa Cruz; sc-17767). Analysis of the results were performed according to Jafari et al., (2014) using GraphPad Prism software.
To establish direct target engagement, as well as cell membrane permeability, a cellular thermal shift assay (CETSA) was carried out (see methods), using the leading compounds YB-537, YB-800, and YB-808. Following 1 h preincubation with 5 μM of each of the compounds, or vehicle, thermal aggregation curves (Tagg) of QR2 expressed in HEK293T were measured in increasing temperatures. […] Based on the Tagg curves, the inventors selected 73° C. for isothermal dose-response fingerprint (IDTRF) experiments (FIG. 2B).

[4] = Cell toxicity assay (ATP depletion, CellTiter Glo); details: human
Procedure: THLE-2 (CRL-2706™) were grown in the BEGM Bullet Kit (CC-3170) from Lonza. Besides the additives contained in the kit, the medium was further supplemented with 5 ng/mL EGF (Sigma), 70 ng/mL phosphoethanolamine (Sigma) and 10% FBS (Biological Industries). The plates for the THLE-2 needed to be pre-coated with a mixture of 0.01 mg/mL fibronectin, 0.05 mg/mL of PureCol™ EZ Gel Solution (Sigma) and 0.01 mg/mL of BSA dissolved in BEBM medium (Lonza). The coating medium was aspirated before seeding.
THLE-2 cells were exposed to the compounds in a 9-point, 2-fold dilution dose response series with a 100 μM as upper limit, for 72 h. Following the 72 h of exposure to the test compounds, cell viability was determined by measuring the concentration of cellular ATP (CellTiter Glo, Promega). The luminescence signal was measured on a Pherastar FS multi-mode plate reader (BMG Labtech). Each data point was tested in a triplicate.
First, toxicity was assessed in an ATP depletion assay, using THLE-2 cells following a 72 h exposure to a dose response of each of the tested compounds.

QR2 [5] = molecular target: T1, QR2; assay: QR2 enzymatic activity assay (menadione/BNAH), absorbance readout at 350 nm; type: biochemical; parameters: purchased Sigma-Aldrich

Structure (SMILES)	freezing in response to the conditioned cue (5×FAD mice [1]; 5×FAD both sexes) [%]	freezing in response to the conditioned cue (5×FAD mice [1]; 5×FAD females) [%]	baseline freezing in conditioning chambers (5×FAD mice [1]; 5×FAD males) [%]	freezing in response to the conditioned context (5×FAD mice [1]; 5×FAD males) [%]	freezing in response to the conditioned cue (5×FAD mice [1]; 5×FAD males) [%]	novel object discrimination (5×FAD mice [2])	baseline freezing (C57BL/6 mice) [%]	thermal stability of QR2 (thermal aggregation curve) versus vehicle (QR2 [3]; 5 μM, 1 h preincubation)	EC50 (QR2 [3]; CETSA at 73° C., read-out: EC50 of QR2 stabilization (isothermal dose-response fingerprint)) [nM]	IC50 at 72 h [4] [nM]	IC50 (QR2 [5]) [µM]
Cc1ccc(-c2cn3cccc(C)c3n2)cc1S(=O)(=O)N1CCNCC1 [YB-537, 8-methyl-2-(4-methyl-3-(piperazin-1-ylsulfonyl)phenyl)imidazo[1,2-a]pyridine hydrochloride]	16.47±1.689	12.66±1.739	0.642±0.408	39.51±2.666	19.43±2.289	0.06432±0.1285	3.595±1.244				
Cc1cccn2cc(-c3cccc(S(=O)(=O)N4CCC(C)CC4)c3)nc12 [YB-800]								shifts of thermal stability	34	78400	0.02
